What was measured:
Plutella xylostella = test: Insecticidal Test on Plutella xylostella; format: in vivo; details: 144 h, Chinese cabbage seedlings with laid eggs dipped for about 30 seconds, 25° C., 6 days after the dip treatment, read-out: insecticidal efficacy (corrected mortality rate)
Description: Insecticidal Test on Plutella xylostella
Adults of Plutella xylostella were released onto Chinese cabbage seedlings and allowed to lay eggs thereon. At 2 days after the release of the adults, the Chinese cabbage seedlings with laid eggs were dipped for about 30 seconds in agrochemical dispersions diluted to 500 ppm, each of which contained a different condensed heterocyclic compound represented by the general formula (1) of the present invention as an active ingredient. After air-dried, the seedlings were kept in a thermostatic chamber at 25° C. At 6 days after the dip treatment, the number of hatched larvae per plot was counted, the mortality rate was calculated according to the formula shown below, and the insecticidal efficacy was evaluated according to the criteria of Test Example 2. This test was conducted in triplicate using 10 adults of Plutella xylostella per plot. Corrected mortality rate(%)=100×(Number of hatched larvae in a non-treatment plot−Number of hatched larvae in a treatment plot)/Number of hatched larvae in a non-treatment plot [Math. 3]

Laodelphax striatellus = test: Insecticidal Test on Laodelphax striatellus; format: in vivo; details: 192 h, rice plant seedlings dipped for 30 seconds, 3rd-instar larvae, 8 days after the inoculation, read-out: insecticidal efficacy (corrected mortality rate)
Description: Insecticidal Test on Laodelphax striatellus
The condensed heterocyclic compounds represented by the general formula (1) of the present invention or salts thereof were separately dispersed in water and diluted to 500 ppm. Rice plant seedlings (variety: Nihonbare) were dipped in the agrochemical dispersions for 30 seconds. After air-dried, each seedling was put into a separate glass test tube and inoculated with ten 3rd-instar larvae of Laodelphax striatellus, and then the glass test tubes were capped with cotton plugs. At 8 days after the inoculation, the numbers of surviving larvae and dead larvae were counted, the corrected mortality rate was calculated according to the formula shown below, and the insecticidal efficacy was evaluated according to the criteria shown below. Corrected mortality rate(%)=100×(Survival rate in a non-treatment plot−Survival rate in a treatment plot)/Survival rate in a non-treatment plot [Math. 2] Corrected Mortality Rate A: the corrected mortality rate is 100%. B: the corrected mortality rate is 90 to 99%. C: the corrected mortality rate is 80 to 89%. D: the corrected mortality rate is 50 to 79%.

Compound	mortality at 500 ppm (Plutella xylostella) [%]	mortality at 500 ppm (Laodelphax striatellus) [%]
CCn1cc(C(F)(F)F)cc2nc(-c3ncc(-c4cccc(C(F)(F)F)c4)cc3S(=O)(=O)CC)c(F)c1-2 [Compound 1-16, 2-(5-(3-trifluoromethylphenyl)-3-ethylsulfonyl-pyridin-2-yl)-3-fluoro-4-ethyl-6-trifluoromethyl-4H-pyrrolo[3,2-b]pyridine]	100	100
CCn1cc(C(F)(F)F)cc2nc(-c3nc4cc(Br)ccc4cc3S(=O)(=O)CC)c(F)c1-2 [Compound 2-76, 2-(7-bromo-3-ethylsulfonyl-quinolin-2-yl)-3-fluoro-4-ethyl-6-trifluoromethyl-4H-pyrrolo[3,2-b]pyridine]	100	100
CCS(=O)(=O)c1c(-c2nc3cc(C(F)(F)F)cn(C)c-3c2F)nc2cc(C(F)(F)F)ccn12 [Compound 3-14, 2-(3-ethylsulfonyl-7-(trifluoromethyl)imidazo[1,2-a]pyridin-2-yl)-3-fluoro-4-methyl-6-(trifluoromethyl)-4H-pyrrolo[3,2-b]pyridine]	100	100
CCS(=O)(=O)c1cc(-c2cccc(C(F)(F)F)c2)cnc1-c1nc2cc(C(F)(F)F)cn(C)c-2c1Cl [Compound 1-13, 2-(5-(3-trifluoromethylphenyl)-3-ethylsulfonyl-pyridin-2-yl)-3-chloro-4-methyl-6-trifluoromethyl-4H-pyrrolo[3,2-b]pyridine]	100	100
CCn1cc(C(F)(F)F)cc2nc(-c3nc4cc(Br)ccc4cc3S(=O)(=O)CC)c(Cl)c1-2 [Compound 2-52, 2-(7-bromo-3-ethylsulfonyl-quinolin-2-yl)-3-chloro-4-ethyl-6-trifluoromethyl-4H-pyrrolo[3,2-b]pyridine]	100	100

Source: patent US11083198B2, “4H-pyrrolopyridine compound or salt thereof, agricultural and horticultural insecticide comprising the compound or the salt, and method for using the insecticide” (Nihon Nohyaku Co., Ltd., priority 2016, dated 2021)
